According to US11026426B2, “Oxadiazole and phenol derivatives as antibacterial and/or herbicidal agents” (NORTHERN ILLINOIS RESEARCH FOUNDATION, priority 2017, dated 2021):
Read-outs that look alike come from different tables or passages of the source.

Tests used:
Format in all cases: cell-based
[1] = tested on: Corynebacterium pseudodiphtheriae; test: Antibacterial assay zone of inhibition Cp
Micrococcus luteus = test: Antibacterial assay zone of inhibition Ml
Corynebacterium xerosis = test: Antibacterial assay zone of inhibition Cx
[2] = tested on: Burkholderia thailandensis
Pseudomonas aeruginosa = test: Antibacterial assay zone of inhibition Pa
Klebsiella pneumonia = test: Antibacterial assay zone of inhibition Kp
Escherichia coli = test: Antibacterial assay zone of inhibition Ec
Bacillus cereus = test: Antibacterial assay zone of inhibition Bc
Mycobacterium smegmatis = test: Antibacterial assay zone of inhibition Ms

SMILES	Antibacterial Cp zone of inhibition ([1]; 0.1 mM) [millimeters]	Antibacterial Cp zone of inhibition ([1]; 0.5 mM) [millimeters]	Antibacterial Cp zone of inhibition ([1]; 1 mM) [millimeters]	Antibacterial Ml zone of inhibition (Micrococcus luteus; 0.1 mM) [millimeters]	Antibacterial Ml zone of inhibition (Micrococcus luteus; 0.5 mM) [millimeters]	Antibacterial Ml zone of inhibition (Micrococcus luteus; 1 mM) [millimeters]	Antibacterial Cx zone of inhibition (Corynebacterium xerosis; 0.1 mM) [millimeters]	Antibacterial Cx zone of inhibition (Corynebacterium xerosis; 0.5 mM) [millimeters]	Antibacterial Cx zone of inhibition (Corynebacterium xerosis; 1 mM) [millimeters]	Antibacterial Pa zone of inhibition (Pseudomonas aeruginosa; 0.1 mM) [millimeters]	Antibacterial Pa zone of inhibition (Pseudomonas aeruginosa; 0.5 mM) [millimeters]	Antibacterial Pa zone of inhibition (Pseudomonas aeruginosa; 1 mM) [millimeters]	Antibacterial Kp zone of inhibition (Klebsiella pneumonia; 0.1 mM) [millimeters]	Antibacterial Kp zone of inhibition (Klebsiella pneumonia; 0.5 mM) [millimeters]	Antibacterial Kp zone of inhibition (Klebsiella pneumonia; 1 mM) [millimeters]	Antibacterial Ec zone of inhibition (Escherichia coli; 0.1 mM) [millimeters]	Antibacterial Ec zone of inhibition (Escherichia coli; 0.5 mM) [millimeters]	Antibacterial Ec zone of inhibition (Escherichia coli; 1 mM) [millimeters]	Antibacterial Bc zone of inhibition (Bacillus cereus; 0.1 mM) [millimeters]	Antibacterial Bc zone of inhibition (Bacillus cereus; 0.5 mM) [millimeters]	other results
Clc1ccc(OCc2nnc(-c3nc4ccccc4s3)o2)cc1 [HGN-826]	0	0	0	0	0	0	0	0	0	0	0	0	0	0	0	0	0	0	0	0	Antibacterial Bt zone of inhibition ([2]; 0.1 mM): 0 millimeters; Antibacterial Bt zone of inhibition ([2]; 0.5 mM): 0 millimeters; Antibacterial Bt zone of inhibition ([2]; 1 mM): 0 millimeters; Antibacterial Bc zone of inhibition (Bacillus cereus; 1 mM): 12 millimeters; Antibacterial Ms zone of inhibition (Mycobacterium smegmatis; 0.1 mM): 0 millimeters; Antibacterial Ms zone of inhibition (Mycobacterium smegmatis; 0.5 mM): 13 millimeters; Antibacterial Ms zone of inhibition (Mycobacterium smegmatis; 1 mM): 20 millimeters
Clc1ccc(OCc2nnc(-c3cc4ccccc4[nH]3)o2)c(Cl)c1 [HGN-810]	0	0	0	0	0	0	0	0	0	0	0	0	0	0	0	0	0	0	0	11	Antibacterial Bt zone of inhibition ([2]; 0.1 mM): 0 11.5 17 millimeters; Antibacterial Bt zone of inhibition ([2]; 0.5 mM): 0 11.5 17 millimeters; Antibacterial Bt zone of inhibition ([2]; 1 mM): 0 11.5 17 millimeters; Antibacterial Bc zone of inhibition (Bacillus cereus; 1 mM): 16.5 millimeters; Antibacterial Ms zone of inhibition (Mycobacterium smegmatis; 0.1 mM): 0 millimeters; Antibacterial Ms zone of inhibition (Mycobacterium smegmatis; 0.5 mM): 0 millimeters; Antibacterial Ms zone of inhibition (Mycobacterium smegmatis; 1 mM): 0 millimeters
Cc1cccc(OCc2nnc(-c3nc4ccccc4s3)o2)c1 [HGN-837]	0	0	0	0	6	10	0	11	17	0	0	0	0	0	0	0	10	17	0	13	Antibacterial Bt zone of inhibition [2]: 0 13 19.5 millimeters; Antibacterial Bc zone of inhibition (Bacillus cereus; 1 mM): 19 millimeters; Antibacterial Ms zone of inhibition (Mycobacterium smegmatis; 0.1 mM): 0 millimeters; Antibacterial Ms zone of inhibition (Mycobacterium smegmatis; 0.5 mM): 0 millimeters; Antibacterial Ms zone of inhibition (Mycobacterium smegmatis; 1 mM): 0 millimeters
